Source: patent US8153773B2, “Synthesis and use of anti-reverse phosphorothioate analogs of the messenger RNA cap” (Board of Supervisors of Louisiana State University and …, priority 2007, dated 2012)

Assays:
HC11 cells = assay: Translational efficiency of capped luciferase mRNA in HC11 cells; type: cell-based, mouse; details: Luc-A60 mRNA capped with the analog in HC11 cells, relative to m^7Gp3G-capped mRNA
Method: Two methods, electroporation and nucleoporation, were used to deliver RNA into cells. In case of electroporation, 5 μg of RNA were introduced into 10^7 HC11 cells in a total volume 400 μl of serum-reduced RPMI 1640 medium in a Gene pulser cuvette (4 mm gap) with a Bio-Rad Genepulser™ set at 0.22 kV and 960 μF. Following discharge, the cells were washed twice with PBS, centrifuged for 2 min 300×g at room temperature, resuspended in prewarmed complete medium, and placed at 37° C. Nucleoporation was performed with an Amaxa Nucleofector II (Amaxa Biosystems) in accordance with manufacture's recommendations. One microgram of RNA was introduced into 10^6 HC11 cells with Nucleofector Solution V and the set of recommended regimens (program T-024).
For measurement of translational efficiency, cells were divided into several Eppendorf tubes, placed in a water bath at 37° C., and shaken. For measurement of mRNA stability, cells were distributed into 35-mm cell culture dishes and placed at 37° C. in a 5% CO2 humidified atmosphere. Cells were harvested at various times and washed twice with PBS.
For cytoplasmic RNA extraction, 2×10^5 cells were lysed in 175 μl of lysis buffer (50 mM Tris-HCl, pH 8.0, 140 mM NaCl, 1.5 mM MgCl2, 0.5% (v/v) Igepal (Sigma), and 1 mM dithiothreitol). RNAs were further purified using the RNeasy mini kit. For protein extraction, 2×10^5 cells were lysed in 200 μl of Luciferase Cell Culture Lysis Reagent (Promega). Luciferase activity of cell extracts was measured according to the manufacturer's protocol (Promega).
We also determined the translational efficiency in cultured cells for luciferase mRNA capped with S-ARCAs. This involved two measurements conducted at various times following nucleoporation—luciferase activity measured by luminometry in cleared cell lysates, and Luc-A60 levels measured by real-time PCR. Luciferase activity was normalized by the amount of luciferase mRNA that had been delivered into cells. To determine the amount of RNA present in the cells at a time immediately after nucleoporation, i.e., before any decay had occurred, cells were harvested at various times between 2 to 8 h post-nucleoporation, and cytoplasmic RNA was extracted. The amount of luciferase mRNA was measured by real time PCR using primers that amplify sequences near the 5′-end. Luciferase mRNA remaining at each time point was plotted as log10 ([RNA]) versus time to determine t1/2. The curve was extrapolated to 0 h, and the amount of RNA delivered into the cells was calculated. We defined conditions under which the accumulation of luciferase was linear with time, after an initial lag period of ˜30 min for recruitment of mRNA to ribosomes, completing the first polypeptide chain, and release of luciferase into the cytosol.

DcpS [1] = molecular target: T1, DcpS (Homo sapiens, UniProt Q96C86); assay: Enzymatic hydrolysis by human DcpS; type: biochemical; parameters: key: the analogs assigned as resistant remained completely undigested under the applied conditions; the analogs assigned as hydrolyzed were hydrolyzed by DcpS with efficiency comparable to the respective unmodified parent compound; details: conditions giving complete degradation of unmodified parent within 40-90 min, RP HPLC
T1 sequence (Q96C86 1-337): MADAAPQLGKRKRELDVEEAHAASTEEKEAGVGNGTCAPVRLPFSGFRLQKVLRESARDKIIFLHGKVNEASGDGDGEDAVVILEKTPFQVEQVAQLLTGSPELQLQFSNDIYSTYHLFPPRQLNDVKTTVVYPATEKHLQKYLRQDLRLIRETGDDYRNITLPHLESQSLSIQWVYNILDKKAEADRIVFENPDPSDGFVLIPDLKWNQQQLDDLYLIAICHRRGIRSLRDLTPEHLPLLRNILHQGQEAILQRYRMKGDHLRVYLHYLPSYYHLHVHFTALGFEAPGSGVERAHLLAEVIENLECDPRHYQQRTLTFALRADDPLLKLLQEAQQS
Method: (§1) Human and nematode DcpS were expressed in Escherichia coli according to the procedures described previously (L. S. Cohen et al., “Nematode m7 GpppG and m3(2,2,7)GpppG decapping: activities in Ascaris embryos and characterization of C. elegans scavenger DcpS,” RNA, vol. 10, pp. 1609-1624 (2004)). Both proteins were stored at −80° C. in 20 mM Tris buffer, pH 7.5, containing 50 mM KCl, 0.2 mM EDTA, 1 mM DTT, 0.5 mM PMSF, and 20% glycerol. An appropriate cap analog at 1 mM concentration was treated with 5.0 or 7.0 μl of DcpS (from human or C. elegans, respectively) in 500 μl of 50 mM TRIS buffer, pH=7.9, containing 20 mM of MgCl2 and 60 mM of (NH4)2SO4 at 37° C. for 60-90 min. Every 15-20 min a 100 μl sample was collected from the reaction mixture and deactivated by incubation in 90° C. for 3 min. Collected samples were analyzed without further treatment by analytical RP HPLC using a linear gradient of methanol in 0.1 M KH2PO4, pH=6.0, from 0-50% within 15 min and UV-detection at 260 nm.
(§2) The new series of S-analogs were subjected to in vitro enzymatic hydrolysis catalyzed by DcpS from both human and C. elegans sources. In all experiments, the corresponding unmodified cap analog was used as a positive control, i.e., m^7GpppG for non-ARCA S-analogs and m2^7,2′-OGpppG for S-ARCAs. The amount of DcpS enzyme was optimized to provide complete degradation of the control substrate within 40-90 min. The samples collected from reaction mixtures at various time intervals were analyzed by RP HPLC (as described in Materials and Methods).
(§3) In Table 4, cap analogs at 4 μM concentration were subjected to enzymatic digestion by DcpS in conditions leading to complete degradation of the unmodified parent compound (i.e. m^7GpppG for non-ARCA S-analogs and m2^7,2′-OGpppG for ARCAs) within 40-90 min. Samples collected from reaction mixtures at various time intervals were analysed by RP HPLC with UV detection at 260 nm as described in Materials and Methods. […] The result was unchanged even if the reaction time was extended to 24 h, various amounts of enzyme were used, and composition of the reaction buffer was modified.

DcpS [2] = molecular target: T2, DcpS (Caenorhabditis elegans, UniProt G5EFS4); assay: Enzymatic hydrolysis by C. elegans DcpS; type: biochemical; parameters: key: the analogs assigned as resistant remained completely undigested under the applied conditions; the analogs assigned as hydrolyzed were hydrolyzed by DcpS with efficiency comparable to the respective unmodified parent compound; details: conditions giving complete degradation of unmodified parent within 40-90 min, RP HPLC
T2 sequence (G5EFS4 1-311): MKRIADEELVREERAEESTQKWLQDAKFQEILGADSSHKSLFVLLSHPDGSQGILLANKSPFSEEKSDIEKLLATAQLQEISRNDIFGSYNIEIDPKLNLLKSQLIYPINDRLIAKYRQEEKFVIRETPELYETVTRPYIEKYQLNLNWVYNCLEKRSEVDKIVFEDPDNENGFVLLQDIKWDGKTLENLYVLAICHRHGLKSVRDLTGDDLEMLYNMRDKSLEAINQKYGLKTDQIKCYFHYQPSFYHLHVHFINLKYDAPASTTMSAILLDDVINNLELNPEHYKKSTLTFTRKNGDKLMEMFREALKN
Method: as §1, §2, §3

Molecule	Relative translational efficiency (HC11 cells)	Resistance to enzymatic hydrolysis by DcpS (human) (DcpS [1])	Resistance to enzymatic hydrolysis by DcpS (from C. elegans) (DcpS [2])	Relative translational efficiency (HC11 cells; listed as m2^7,2′-OGppSpG (D1))	Relative translational efficiency (HC11 cells; listed as m2^7,2′-OGppspG (D1))	Relative translational efficiency (HC11 cells; listed as m2^7,2′-OGppSpG (D2))	Relative translational efficiency (HC11 cells; listed as m2^7,2′-OGppspG (D2))
CO[C@@H]1[C@H](O)[C@@H](COP(=O)(O)OP(=O)([O-])OP(=O)(O)OC[C@H]2O[C@@H](n3cnc4c(=O)[nH]c(N)nc43)[C@H](O)[C@@H]2O)O[C@H]1n1c[n+](C)c2c(O)nc(N)nc21 [m2^7,2′-OGpppG, reference compound]	2.1 ± 0.2	hydrolyzed	hydrolyzed	–	–	–	–
m2^7,2′-OGpppsG (D1) [Compound 4a]	2.5 ± 0.8	hydrolyzed	hydrolyzed	–	–	–	–
m2^7,2′-OGpppsG (D2) [Compound 4b]	1.8 ± 0.4	hydrolyzed	hydrolyzed	–	–	–	–
m2^7,2′-OGppspG (D1) [Compound 5a]	–	hydrolyzed	hydrolyzed	2.8 ± 0.3	2.8	–	–
m2^7,2′-OGppspG (D2) [Compound 5b]	–	hydrolyzed	hydrolyzed	–	–	5.1 ± 0.5	5.1
m2^7,2′-OGpsppG (D1) [Compound 6a]	2.0 ± 0.1	resistant	resistant	–	–	–	–
m2^7,2′-OGpsppG (D2) [Compound 6b]	1.9 ± 0.1	resistant	resistant	–	–	–	–
